Data published in patent US8791132B2, “Compounds and methods for treatment of hypertension” (Medivation Technologies, Inc., priority 2011, dated 2014).
Read-outs that look alike come from different tables or passages of the source.

How the values were obtained:
[1] = biological target: T1, human recombinant adrenergic α2B receptor (Homo sapiens, UniProt P18089); test: Radioligand binding, adrenergic α2B ([3H]Rauwolscine); conditions: for Percentage inhibition of ligand binding, Adrenergic α2B (0.03 μM): compound at 0.03 μM
T1 construct: expressed in transfected cells; host or cells: CHO-K1
T1 sequence (P18089 1-450): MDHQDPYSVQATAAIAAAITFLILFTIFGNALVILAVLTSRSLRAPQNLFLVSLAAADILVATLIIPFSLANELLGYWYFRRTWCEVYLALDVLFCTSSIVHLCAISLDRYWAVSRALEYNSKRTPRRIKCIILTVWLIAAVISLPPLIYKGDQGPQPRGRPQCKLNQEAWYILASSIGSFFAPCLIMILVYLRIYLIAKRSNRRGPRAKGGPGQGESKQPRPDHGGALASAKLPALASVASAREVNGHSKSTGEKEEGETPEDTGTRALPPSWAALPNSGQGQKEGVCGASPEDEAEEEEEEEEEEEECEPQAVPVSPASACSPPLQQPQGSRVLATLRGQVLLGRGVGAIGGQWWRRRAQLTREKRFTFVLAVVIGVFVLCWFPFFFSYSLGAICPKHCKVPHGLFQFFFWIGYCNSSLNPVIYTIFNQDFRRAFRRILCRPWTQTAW
Summary of the method: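 Assay used CHO-K1-expressed human α2B receptor in Tris-HCl pH 7.4 buffer with MgCl2, EDTA and BSA; 60 min incubation at 25 °C.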

[2] = biological target: T2, human recombinant adrenergic α2A receptor (Homo sapiens, UniProt P08913); test: Radioligand binding, adrenergic α2A ([3H]MK-912); conditions: for Percentage inhibition of ligand binding, Adrenergic α2A (0.1 μM): compound at 0.1 μM
T2 construct: expressed in transfected cells; host or cells: insect Sf9 cells
T2 sequence (P08913 1-465): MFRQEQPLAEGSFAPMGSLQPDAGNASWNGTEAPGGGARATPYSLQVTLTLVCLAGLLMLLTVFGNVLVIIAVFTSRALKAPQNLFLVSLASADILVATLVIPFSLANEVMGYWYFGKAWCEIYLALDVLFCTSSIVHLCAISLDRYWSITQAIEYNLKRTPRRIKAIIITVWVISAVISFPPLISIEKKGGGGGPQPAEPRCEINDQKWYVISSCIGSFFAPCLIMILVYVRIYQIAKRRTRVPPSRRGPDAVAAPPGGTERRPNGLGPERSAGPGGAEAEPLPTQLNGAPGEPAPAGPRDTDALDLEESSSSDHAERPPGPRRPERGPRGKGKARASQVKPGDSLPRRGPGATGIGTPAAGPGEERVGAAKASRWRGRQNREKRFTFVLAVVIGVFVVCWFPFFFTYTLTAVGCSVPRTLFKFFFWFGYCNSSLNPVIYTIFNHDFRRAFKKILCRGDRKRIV
Summary of the method: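 Receptor expressed in Sf9 cells, in 50 mM Tris-HCl pH 7.4, 12.5 mM MgCl2, 2 mM EDTA; compounds incubated with 1 nM [3H]MK-912 for 60 min at 25 °C.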

[3] = biological target: T3, rat adrenergic α1B receptor (Rattus norvegicus, UniProt P15823); test: Radioligand binding, adrenergic α1B ([3H]Prazosin); conditions: for Percentage inhibition of ligand binding, Adrenergic α1B (0.1 μM): compound at 0.1 μM
T3 construct: rat adrenergic α1B receptor obtained from Wistar Rat liver; from tissue; host or cells: Wistar rat liver
T3 sequence (P15823 1-515): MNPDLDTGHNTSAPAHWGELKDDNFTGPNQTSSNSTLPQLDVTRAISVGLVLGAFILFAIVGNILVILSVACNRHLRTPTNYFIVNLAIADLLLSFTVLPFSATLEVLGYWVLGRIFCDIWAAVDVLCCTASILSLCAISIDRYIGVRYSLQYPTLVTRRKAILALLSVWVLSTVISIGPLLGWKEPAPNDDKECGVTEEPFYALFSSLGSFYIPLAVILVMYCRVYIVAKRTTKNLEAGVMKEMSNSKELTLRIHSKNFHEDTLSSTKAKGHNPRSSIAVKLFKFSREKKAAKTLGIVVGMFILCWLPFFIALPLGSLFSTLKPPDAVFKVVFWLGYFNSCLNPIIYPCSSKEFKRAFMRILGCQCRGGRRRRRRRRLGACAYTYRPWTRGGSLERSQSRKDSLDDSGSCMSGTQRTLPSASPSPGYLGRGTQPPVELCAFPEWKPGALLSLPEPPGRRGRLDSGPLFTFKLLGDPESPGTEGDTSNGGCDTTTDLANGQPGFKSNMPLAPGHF
Summary of the method: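 Specific binding, taken as total minus that remaining with 10 μM phentolamine, is measured after filtration and counting. Rat liver receptor preparation and 0.25 nM [3H]prazosin are incubated with compound in 50 mM Tris-HCl (pH 7.4, 0.5 mM EDTA) at 25° C for 60 min. Activity is reported as percent inhibition.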

[4] = 0.03 μM compound, read-out: Percentage inhibition of ligand binding, Adrenergic α2B
[5] = 0.1 μM compound, read-out: Percentage inhibition of ligand binding, Adrenergic α2A
[6] = 0.1 μM compound, read-out: Percentage inhibition of ligand binding, Adrenergic α1B
[7] = read-out: Percentage inhibition of ligand binding, Adrenergic α2B (0.03 μM), compound at 0.03 μM, [3H]Rauwolscine, repeat datapoints each shown
[8] = read-out: Percentage inhibition of ligand binding, Adrenergic α2A (0.1 μM), compound at 0.1 μM, [3H]MK-912, repeat datapoints each shown
[9] = read-out: Percentage inhibition of ligand binding, Adrenergic α1B (0.1 μM), compound at 0.1 μM, [3H]Prazosin, repeat datapoints each shown
[10] = [3H]MK-912, repeat datapoints each shown
[11] = [3H]Rauwolscine, repeat datapoints each shown
[12] = [3H]Prazosin, repeat datapoints each shown

Row | inhibition at 0.03 µM [1, 4] | inhibition at 0.1 µM [2, 5] | inhibition at 0.1 µM [3, 6] | inhibition at 0.03 µM [1, 7] | inhibition at 0.1 µM [2, 8] | inhibition at 0.1 µM [3, 9] | other results | Compound
1 | 48% | -2% | 68% |  |  |  |  | Cc1ccc2c(c1)c1c(n2CC(O)c2ccc(O)c(O)c2)CCN(C)C1 (stereo not drawn) [II-88, 4-[2-(2,8-dimethyl-1,2,3,4-tetrahydro-pyrido[4,3-b]indol-5-yl)-1-hydroxy-ethyl]-benzene-1,2-diol]
2 | 35% | -5% | 13% |  |  |  |  | OC(Cn1c2c(c3cc(Cl)ccc31)CNCC2)c1cccnc1 (stereo not drawn) [II-89, 2-(8-chloro-1,2,3,4-tetrahydro-pyrido[4,3-b]indol-5-yl)-1-pyridin-3-yl-ethanol]
3 | 55% | 19% | 62% |  |  |  |  | Cc1ccc2c(c1)c1c(n2CC(O)c2ccnc3ccccc23)CCN(C)C1 (stereo not drawn) [II-90, 2-(2,8-dimethyl-3,4-dihydro-1H-pyrido[4,3-b]indol-5(2H)-yl)-1-(quinolin-4-yl)ethanol]
4 | 25% | -2% | 16% |  |  |  |  | Cc1ccc2c(c1)c1c(n2CC(O)C2CCCCC2)CCN(C)C1 (stereo not drawn) [II-91]
5 | 25% | 0% | 13% |  |  |  |  | Cc1ccc2c(c1)c1c(n2CC(O)c2ccc(O)nc2)CCN(C)C1 (stereo not drawn) [II-92, 5-(2-(1,2,3,4-tetrahydro-2,8-dimethylpyrido[4,3-b]indol-5-yl)-1-hydroxyethyl)pyridin-2(1H)-one]
6 |  | 7% |  |  |  |  | Percentage inhibition of ligand binding, Adrenergic α2B ([1]; 0.03 μM compound): 24%; Percentage inhibition of ligand binding, Adrenergic α1B ([3]; 0.1 μM compound): 6% | OCCN1CCc2c(c3cc(Cl)ccc3n2CC(O)c2ccncc2)C1 (stereo not drawn) [II-93a]
7 | 24% | 4% | -4% |  |  |  |  | Cc1ccc2c(c1)c1c(n2CC(O)c2ccncc2)CCN(CCS(=O)(=O)O)C1 (stereo not drawn) [II-97, 2-(3,4-dihydro-5-(2-hydroxy-2-(pyridin-4-yl)ethyl)-8-methyl-1H-pyrido[4,3-b]indol-2(5H)-yl)ethanesulfonic acid]
8 | 49% | 10% | 2% |  |  |  |  | CN1CCc2c(c3cc(CO)ccc3n2CC(C)(O)c2cccnc2)C1 (stereo not drawn) [II-102]
9 | 21% | 10% | 3% |  |  |  |  | CC(O)(Cn1c2c(c3cc(CO)ccc31)CNCC2)c1cccnc1 (stereo not drawn) [II-104]
10 |  |  |  | 35% | 3% | 42% |  | Cc1cnc2c(c1)c1c(n2CC(O)c2ccc(C(N)=O)nc2)CCN(C)C1 (stereo not drawn) [II-111, 5-[2-(3,6-dimethyl-5,6,7,8-tetrahydro-1,6,9-triaza-fluoren-9-yl)-1-hydroxy-ethyl]-pyridine-2-carboxylic acid amide]
11 |  |  |  | 36% |  | 5% | Percentage inhibition of ligand binding, Adrenergic α2A (0.1 μM) [2, 10]: 10% | Cc1ccc2c(c1)c1c(n2CC(C)(O)c2cccnc2)C(c2ccccc2)N(C)CC1 (stereo not drawn) [II-112a, 1-(2,6-dimethyl-1-phenyl-1,2,3,4-tetrahydro-β-carbolin-9-yl)-2-pyridin-3-yl-propan-2-ol]
12 |  |  |  |  |  |  | Percentage inhibition of ligand binding, Adrenergic α2B (0.03 μM) [1, 11]: 31%; Percentage inhibition of ligand binding, Adrenergic α2A (0.1 μM) [2, 10]: 3%; Percentage inhibition of ligand binding, Adrenergic α1B (0.1 μM) [3, 12]: 10% | Cc1ccc2c(c1)c1c(n2CC(C)(O)c2cccnc2)C(c2ccccc2)N(C)CC1 (stereo not drawn) [II-112b, 1-(2,6-dimethyl-1-phenyl-1,2,3,4-tetrahydro-β-carbolin-9-yl)-2-pyridin-3-yl-propan-2-ol]
13 |  |  |  | 43% | 3% | 4% |  | Cc1cnc2c(c1)c1c(n2CC(O)c2ccc(C#N)cc2)CCNC1 (stereo not drawn) [II-116]
14 |  |  |  | 47% | -10% | -2% |  | Cc1ccc2c(n1)c1c(n2CC(O)c2ccncc2)CCN2CCCC12 (stereo not drawn) [II-122]
15 |  |  |  | 4% | 4% | -4% |  | CN1CCc2c(c3ncccc3n2CC(C)(O)c2cccnc2)C1 (stereo not drawn) [II-126]
16 |  |  |  | 97% | 34% | 61% |  | Cc1ccc2c(c1)c1c(n2CC(C)(O)c2ccc(C)nc2)CCN2CCCC12 (stereo not drawn) [II-128a, 1-(9-methyl-1,2,3,4,5,10c-hexahydro-3a,6-diaza-cyclopenta[c]fluoren-6-yl)-2-(6-methyl-pyridin-3-yl)-propan-2-ol]
17 |  |  |  | 1% | 12% | 2% |  | CN1CCc2c(c3ccncc3n2CC(C)(O)c2cccnc2)C1 (stereo not drawn) [II-129]
18 |  |  |  |  |  |  | Percentage inhibition of ligand binding, Adrenergic α2B (0.03 μM) [1, 11]: 97%; Percentage inhibition of ligand binding, Adrenergic α2A (0.1 μM) [2, 10]: 41%; Percentage inhibition of ligand binding, Adrenergic α1B (0.1 μM) [3, 12]: 43% | CC(O)(Cn1c2c(c3cc(Cl)ccc31)C1CCCN1CC2)c1cccnc1 (stereo not drawn) [II-130, 1-(10-chloro-2,3,5,6-tetrahydro-1H-indolizino[7,8-b]indol-7(11cH)-yl)-2-(pyridin-3-yl)propan-2-ol]
19 |  |  |  | 103% | 85% | 90% |  | Cc1ccc2c(c1)c1c(n2CC(O)c2cccnc2)CCN2CCCC12 (stereo not drawn) [II-131, 2-(9-Methyl-1,2,3,4,5,10c-hexahydro-3a,6-diaza-cyclopenta[c]fluoren-6-yl)-1-pyridin-3-yl-ethanol]
20 |  |  |  | 34% | -3% | 48% |  | Cc1ccc2c(c1)c1c(n2CC(C)(O)c2cccnc2)CCN(C)CC1 (stereo not drawn) [II-135a, 1-(3,9-dimethyl-2,3,4,5-tetrahydroazepino[4,5-b]indol-6(1H)-yl)-2-(pyridin-3-yl)propan-2-ol]
21 |  |  |  | 77% | 9% | 57% |  | Cc1ccc2c(c1)c1c(n2CC(O)c2cnn[nH]2)CCN2CCCC12 (stereo not drawn) [II-138]
22 |  |  |  | 72% | 7% | 34% |  | Cc1ccc2c(c1)c1c(n2CC(O)c2ncc[nH]2)CCN2CCCC12 (stereo not drawn) [II-139, 1-(1H-imidazol-2-yl)-2-(10-methyl-2,3,5,6-tetrahydro-1H-indolizino[7,8-b]indol-7(11cH)-yl)ethanol]
23 |  |  |  | 72% | 3% | 53% |  | Cc1ccc2c(c1)c1c(n2CC(O)c2cnc[nH]2)CCN2CCCC12 (stereo not drawn) [II-140, 1-(1H-imidazol-5-yl)-2-(10-methyl-2,3,5,6-tetrahydro-1H-indolizino[7,8-b]indol-7(11cH)-yl)ethanol]
24 |  |  |  | 22% | -2% | 7% |  | Cc1ccc2c(c1)c1c(n2CC(C)(O)c2cncc(C(=O)O)c2)CCN(C)C1 (stereo not drawn) [II-141, 5-(1-(1,2,3,4-tetrahydro-2,8-dimethylpyrido[4,3-b]indol-5-yl)-2-hydroxypropan-2-yl)pyridine-3-carboxylic acid]
